Source: US7202261B2, “Calcilytic compounds” (NPS Pharmaceuticals, Inc., priority 1996, dated 2007)
Structures can show the parent of a compound that is named as a salt.

Molecular target: T1, human calcium receptor (Homo sapiens, UniProt P41180)
T1 construct: expressed in transfected cells
T1 sequence (P41180 20-1078): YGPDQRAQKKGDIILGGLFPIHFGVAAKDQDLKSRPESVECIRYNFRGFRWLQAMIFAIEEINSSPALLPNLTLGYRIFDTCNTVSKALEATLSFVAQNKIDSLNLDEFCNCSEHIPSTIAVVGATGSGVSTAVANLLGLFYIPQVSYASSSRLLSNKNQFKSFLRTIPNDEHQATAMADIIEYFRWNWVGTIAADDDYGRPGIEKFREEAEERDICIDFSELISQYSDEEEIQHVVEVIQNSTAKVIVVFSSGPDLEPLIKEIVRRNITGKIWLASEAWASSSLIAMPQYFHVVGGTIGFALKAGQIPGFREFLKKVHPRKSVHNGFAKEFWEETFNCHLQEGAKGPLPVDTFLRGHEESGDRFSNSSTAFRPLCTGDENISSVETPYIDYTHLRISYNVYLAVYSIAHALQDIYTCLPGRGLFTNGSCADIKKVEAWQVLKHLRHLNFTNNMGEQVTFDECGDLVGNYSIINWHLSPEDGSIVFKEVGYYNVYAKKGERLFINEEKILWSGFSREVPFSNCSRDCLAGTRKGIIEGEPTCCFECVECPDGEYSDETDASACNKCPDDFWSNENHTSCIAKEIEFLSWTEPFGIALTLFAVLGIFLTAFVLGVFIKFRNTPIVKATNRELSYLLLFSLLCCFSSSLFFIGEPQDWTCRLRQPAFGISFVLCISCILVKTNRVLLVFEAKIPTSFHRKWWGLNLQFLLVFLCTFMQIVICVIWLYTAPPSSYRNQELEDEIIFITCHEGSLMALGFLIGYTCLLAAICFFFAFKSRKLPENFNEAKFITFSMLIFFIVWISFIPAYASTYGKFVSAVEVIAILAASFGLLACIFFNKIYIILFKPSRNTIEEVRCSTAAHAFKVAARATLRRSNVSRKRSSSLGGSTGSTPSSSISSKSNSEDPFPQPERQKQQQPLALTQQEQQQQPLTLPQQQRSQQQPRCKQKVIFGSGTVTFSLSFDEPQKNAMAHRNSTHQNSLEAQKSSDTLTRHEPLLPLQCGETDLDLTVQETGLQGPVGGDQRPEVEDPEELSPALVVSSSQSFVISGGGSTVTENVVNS
Assay: Calcium Receptor Inhibitor Assay
Format: cell-based
Conditions: HEK 293 4.0–7 cells stably expressing the human calcium receptor; fluo-3; read-out: IC50 for blocking increases of intracellular Ca2+ elicited by extracellular Ca2+
Method: This example illustrates the use of the Calcium Receptor Inhibitor Assay. […] Res. 10 Suppl. […] Intracellular Ca^2+ was measured using fluo-3, a fluorescent calcium indicator.
The procedure was as follows:
1. Cells were maintained in T-150 flasks in selection media (DMEM supplemented with 10% fetal bovine serum and 200 μg/mL hygromycin B), under 5% CO2:95% air at 37° C. and were grown up to 90% confluency.
2. The medium was decanted and the cell monolayer was washed twice with phosphate-buffered saline (PBS) kept at 37° C. After the second wash, 6 mL of 0.02% EDTA in PBS was added and incubated for 4 minutes at 37° C. Following the incubation, cells were dispersed by gentle agitation.
3. Cells from 2 or 3 flasks were pooled and pelleted (100×g). The cellular pellet was resuspended in […] of SPF-PCB+ and pelleted again by centrifugation. This washing was done twice.
SPF-PCB was made up and stored at 4° C. On the day of use, SPF-PCB was supplemented with 1 mg/mL of D-glucose and 1 mM CaCl2 and then split into two fractions. To one fraction, bovine serum albumin (BSA; fraction V, ICN) was added at 5 mg/mL (SPF-PCB+). This buffer was used for washing, loading and maintaining the cells. The BSA-free fraction was used for diluting the cells in the cuvette for measurements of fluorescence.
5. Following the incubation period, the cells were pelleted by centrifugation. The resulting pellet was washed with SPF-PCB+. After this washing, cells were resuspended in SPF-PCB+ at a density of 1–2×10^6 cells/mL.
6. For recording fluorescent signals, 300 μL of cell suspension were diluted in 1.2 mL of SPF buffer containing 1 mM CaCl2 and 1 mg/mL of D-glucose. Measurements of fluorescence were performed at 37° C. with constant stirring using a spectrofluorimeter. […] To calibrate fluorescence signals, digitonin (5 mg/mL in ethanol) was added to obtain Fmax, and the apparent Fmin was determined by adding Tris-EGTA (2.5 M Tris-Base, 0.3 M EGTA).
7. To determine the potential calcilytic activity of test compounds, cells were incubated with test compound (or vehicle as a control) for 90 seconds before increasing the concentration of extracellular Ca^2+ from 1 to 2 mM. Calcilytic compounds were detected by their ability to block, in a concentration-dependent manner, increases in the concentration of intracellular Ca^2+ elicited by extracellular Ca^2+.

SMILES: COc1ccc(CC(C)(C)NCC(O)COc2cccc(Cl)c2)cc1 (centres unmarked) [Compound 43, N-[2-Hydroxy-3-(3-chlorophenoxy)propyl]-1,1-dimethyl-2-(4-methoxyphenyl)ethylamine Hydrochloride]
- IC50: < 1 µM

SMILES: COc1ccc(CC(C)(C)NCC(O)COc2ccc(F)cc2)cc1 (centres unmarked) [Compound 44, N-[2-Hydroxy-3-(4-fluorophenoxy)propyl]-1,1-dimethyl-2-(4-methoxyphenyl)ethylamine Hydrochloride]
- IC50: < 1 µM

SMILES: COc1ccc(CC(C)(C)NCC(O)COc2cccc(C)c2)cc1 (centres unmarked) [Compound 45, N-[2-Hydroxy-3-(3-methylphenoxy)propyl]-1,1-dimethyl-2-(4-methoxyphenyl)ethylamine Hydrochloride]
- IC50: < 10 µM

SMILES: COc1ccc(CC(C)(C)NCC(O)COc2cccc(C(F)(F)F)c2)cc1 (centres unmarked) [Compound 46, N-[2-Hydroxy-3-(3-trifluoromethylphenoxy)propyl]-1,1-dimethyl-2-(4-methoxyphenyl)ethylamine Hydrochloride]
- IC50: < 1 µM

SMILES: COc1ccc(CC(C)(C)NCC(O)COc2ccccc2C(F)(F)F)cc1 (centres unmarked) [Compound 47, N-[2-Hydroxy-3-(2-trifluoromethylphenoxylpropyl]-1,1-dimethyl-2-(4-methoxyphenyl)ethylamine Hydrochloride]
- IC50: < 1 µM

SMILES: COc1ccc(CC(C)(C)NCC(O)COc2ccccc2C(C)(C)C)cc1 (centres unmarked) [Compound 48, N-[2-Hydroxy-3-(2-t-butylphenoxy)propyl]-1,1-dimethyl-2-(4-methoxyphenyl)ethylamine Hydrochloride]
- IC50: < 10 µM

SMILES: COc1ccc(CC(C)(C)NCC(O)COc2ccccc2OC)cc1 (centres unmarked) [Compound 49, N-[2-Hydroxy-3-(2-methoxyphenoxy)propyl]-1,1-dimethyl-2-(4-methoxyphenyl)ethylamine Hydrochloride]
- IC50: < 10 µM

SMILES: COc1ccc(CC(C)(C)NCC(O)COc2cccc(C(C)(C)C)c2)cc1 (centres unmarked) [Compound 50, N-[2-Hydroxy-3-(3-t-butylphenoxy)propyl]-1,1-dimethyl-2-(4-methoxyphenyl)ethylamine Hydrochloride]
- IC50: < 1 µM

SMILES: COc1ccc(CC(C)(C)NCC(O)COc2ccc(C(F)(F)F)cc2)cc1 (centres unmarked) [Compound 51, N-[2-Hydroxy-3-(4-trifluoromethylphenoxy)propyl]-1,1-dimethyl-2-(4-methoxyphenyl)ethylamine Hydrochloride]
- IC50: < 1 µM

SMILES: COc1ccc(CC(C)(C)NCC(O)COc2ccccc2NC(C)=O)cc1 (centres unmarked) [Compound 52, N-[2-hydroxy-3-(2-acetamidophenoxy)propyl]-1,1-dimethyl-2(4-methoxyphenyl)ethylamine]
- IC50: > 50 µM

SMILES: COc1ccc(CC(C)(C)NCCOc2ccccc2)cc1 [Compound 53, N-(2-phenoxyethyl)-1,1-dimethyl-2-(4-methoxyphenyl)ethylamine]
- IC50: > 50 µM

SMILES: CC(C)(Cc1ccccc1)NCC(O)COc1ccc(C(C)(C)C)cc1 (centres unmarked) [Compound 54]
- IC50: > 50 µM

SMILES: CC(C)(Cc1ccccc1)NCC(O)COc1cccc2ccccc12 (centres unmarked) [Compound 55, N-[2-hydroxy-3-(1-naphthoxy)propyl]-1,1-dimethyl-2-phenylethylamine]
- IC50: > 50 µM

SMILES: CC(C)(Cc1ccccc1)NCC(O)COc1ccccc1 (centres unmarked) [Compound 56, N-(2-Hydroxy-3-phenoxypropyl)-1,1-dimethyl-2-phenylethylamine Hydrochloride]
- IC50: < 50 µM

SMILES: COc1ccc(CC(C)(C)NCC(O)COc2ccc(NC(C)=O)cc2)cc1 (centres unmarked) [Compound 58, N-[2-hydroxy-3-(4-acetamidophenoxy)propyl]-1,1-dimethyl-2(4-methoxyphenyl)ethylamine]
- IC50: > 50 µM

SMILES: COc1ccc(CC(C)(C)NCC(COc2ccccc2)OC)cc1 (centres unmarked) [Compound 59, N-(2-Methoxy-3-phenoxypropyl)-1,1-dimethyl-2-(4-methoxyphenyl)ethylamine Hydrochloride]
- IC50: < 10 µM

SMILES: COc1ccc(CC(C)(C)NCC(O)COc2ccccc2-c2ccccc2)cc1 (centres unmarked) [Compound 60, N-[2-hydroxy-3-(2-phenylphenoxy)propyl]-1,1-dimethyl-2-(4-methoxyphenyl)ethylamine]
- IC50: > 50 µM
